Earlier results in patent US6972278B2, “Laundry detergent gel with suspended particles” (Unilever Home & Personal Care USA division of Conopco, Inc., priority 2004, dated 2005).
Where two headings read alike, the source gives them in different places.

Conditions: by fatty acid chain length
[1] = cited from Langmuir, Vol 16, pp 172-177, 2000

| Compound | Measured pKa value [1] | Measured pKa value (cited from Proc. R. Soc. London, A133, 140, 1931) |
| --- | --- | --- |
| CCCCCCCC(=O)O [Example 8] | 6.3~6.5 | – |
| CCCCCCCCCC(=O)O [Example 10] | 7.1~7.3 | – |
| CCCCCCCCCCCC(=O)O [Example 12] | ~7.5 | – |

Other lines, results leading:

| Measured pKa value [1] | Measured pKa value (cited from Proc. R. Soc. London, A133, 140, 1931) | Compound |
| --- | --- | --- |
| 8.1~8.2 | – | CCCCCCCCCCCCCC(=O)O [Example 14] |
| 8.6~8.8 | 8.5 | CCCCCCCCCCCCCCCC(=O)O [Example 16] |
